Test results published in PMC5734605 (Journal of Medicinal Chemistry, 2017).

Target: TbNMT (Trypanosoma brucei brucei, UniProt Q388H8)
Sequence (Q388H8 1-446): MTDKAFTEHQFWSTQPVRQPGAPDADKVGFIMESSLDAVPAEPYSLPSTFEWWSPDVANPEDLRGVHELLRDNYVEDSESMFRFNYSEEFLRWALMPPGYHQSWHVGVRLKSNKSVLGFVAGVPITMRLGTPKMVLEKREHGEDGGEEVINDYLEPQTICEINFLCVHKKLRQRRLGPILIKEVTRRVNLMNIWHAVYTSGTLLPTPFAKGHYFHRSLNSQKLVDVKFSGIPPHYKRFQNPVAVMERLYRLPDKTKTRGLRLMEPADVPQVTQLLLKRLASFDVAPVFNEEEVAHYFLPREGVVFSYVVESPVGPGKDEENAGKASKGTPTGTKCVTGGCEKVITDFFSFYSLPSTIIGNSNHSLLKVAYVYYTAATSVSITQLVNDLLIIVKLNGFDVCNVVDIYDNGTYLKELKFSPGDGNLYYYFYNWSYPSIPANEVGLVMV

3-((2,6-Dichloro-4-(3-(piperidin-4-yl)propyl)phenoxy)methyl)-2-methylpyridine [Compound 70]
activity against TbNMT (in words): no in vitro activity

Cc1nn(C)c(C)c1COc1cccc(-c2cccc(C3CCNCC3)c2)c1 [Compound 17, 4-(3′-((1,3,5-Trimethyl-1H-pyrazol-4-yl)methoxy)-[1,1′-biphenyl]-3-yl)piperidine]
activity against TbNMT (in words): completely inactive
